# “Also recorded” adds a separate entry of the source.
# Tests used:
# [1] = system: hypercholesterolemic rabbits; details: enriched diet over 12 to 16 weeks; cited from earlier work
# [2] = system: Watanabe rabbits; test: Macroscopic study of the aortas: surface area of the lesions by planimetry; type: in vivo, rabbit
# Protocol: After eight weeks, a sampling of serum (about 1 ml) is carried out then the animals are anaesthetized with an injection of heparinized pentobarbital, and finally sacrificed.
# On the day of sacrifice, after anaesthesia, in the shortest possible time, the animal is opened along the whole length of the cervico-thoracic region. The aorta is incised as low as possible. Using curved scissors, the aorta is removed from the aortic arch as far as the level of the iliac bifurcation following the vertebral column. The aorta is first cleaned in physiological serum and the fatty tissues are removed from its external tunica. It is fixed for 20 minutes in a 2% paraformaldehyde-2% glutaraldehyde mixture then opened along its length. It is then again immersed in the same fixer for 24 hours, after which the aorta is rinsed in 70% ethanol, then stained with Soudan IV for 15 minutes. It is once again rinsed in 80% ethanol for 20 minutes then under running water for 1 hour (22). […] The images are analyzed by means of planimetry software (Scion Image) which makes it possible to determine the surface of the lesions. Finally the aorta is fixed in the same fixer with a view to microscopic study.
# [3] = rabbit, in vivo
# Protocol: Each animal is placed in an individual cage and receives a food ration of 200 g to 250 g per day.
# (§1) The food intake is measured daily and the animals are weighed once a week. Plasma samples are taken every fifteen days from the marginal ear vein. The blood, collected in heparin tubes, is centrifuged (4° C., 2000 g, 15 minutes). Part of the plasma is deproteinized by a solution of sulphosalicylic acid (30%) then divided into aliquot fractions with a view to an assay of the amino acids. The remainder of the plasma is aliquoted into several fractions of about 200 μl, and stored at −80° C.
# The plasmatic arginine, ornithine and citrulline concentrations are determined on a JEOL (Tokyo, Japan) amino acid analyzer. The amino acids are separated by cation-exchange chromatography. On leaving the column, they are developed by a ninhydrin stain reaction. The reaction obtained is quantified by photometry at 570 and 440 nm. The results are expressed in μmol/l.
# [4] = Monitoring of the animals: weight and food intake; type: in vivo, rabbit; details: not included in the study
# Protocol: Twenty-four Watanabe rabbits (Centre de Production Animale, Olivet, France) which are hyperlipidaemic due to an hereditary LDL-receptor (LDL-R) deficiency, homozygous, and six weeks old, are used. Each animal is placed in an individual cage and receives a food ration of 200 g to 250 g per day.
# as §1
# [5] = system: Watanabe rabbits; test: Lipid profile (plasmatic cholesterol, triglycerides, HDL, LDL) in treated Watanabe rabbits; type: in vivo, rabbit
# Protocol: 2. […] The cholesterol is assayed according to an enzymatic colorimetric test using a cholesterol-esterase and a cholesterol-oxidase, followed by a reaction with a peroxidase. The latter reacts with hydrogen peroxide and releases a red derivative the stain intensity of which (measured between 550 and 700 nm) is directly proportional to the cholesterol concentration. The triglyceride assay is also based on this principle, using a lipase which releases glycerol, and a peroxidase which reacts with the hydrogen peroxide and forms a red compound. The HDL cholesterol is assayed by an enzymatic calorimetric test in two phases. The first selects the different lipid fractions by means of dextran sulphate. […] The results are expressed in mmol/l. The kits necessary for all these assays are supplied by RANDOX (Montpellier, France).
# [6] = system: New Zealand White rabbit; details: cited from earlier work
# [7] = system: New Zealand White rabbits; details: 2.5 mg/kg/day; cited from earlier work
# [8] = system: Watanabe rabbits; details: 16 weeks; cited from earlier work
smiles,measurement,setting,value
"N=C(N)NCCC[C@H](N)C(=O)O [arginine, L-Arginine]",atheromatous plaque area,[1],stabilization
same,lesion surface smaller than the control by a factor,[2]; T8,1.3
same,surface area of the lesions (whole aorta),"[2]; T8, versus the control, FIG. 10",smaller
same,"surface area of the lesions, distal half of the aorta","[2]; T8, FIG. 11",no effect
same,L-Arginine concentration in general,[3],doubled
same,"plasmatic arginine concentration, at T4",[3],doubled
same,"plasmatic arginine concentration, at T8",[3],drops
same,animals died before the end of the protocol,[4],two animals
same,effect on the plasmatic cholesterol,"[5]; 8 weeks treatment, versus control at T8, FIG. 3",no effect
same,effect on the lipid profile,[5]; arginine diet alone,no appreciable effect
same,increase in the plasmatic cholesterol concentration,[5]; between T0 and T8,30%
same,"plasmatic triglycerides concentration, course","[5]; between T0 and T8, FIG. 4",increases with age; also recorded: increase by more than half
CC[C@H](C)C(=O)O[C@H]1C[C@@H](C)C=C2C=C[C@H](C)[C@H](CC[C@@H]3C[C@@H](O)CC(=O)O3)[C@H]21 [lovastatin],reduction in cholesterol,"[6]; 16 weeks, New Zealand White rabbit",32%
same,plaque progression,[6]; New Zealand White rabbits,slowed down the plaque progression
"CC(C)c1c(C(=O)Nc2ccccc2)c(-c2ccccc2)c(-c2ccc(F)cc2)n1CC[C@@H](O)C[C@@H](O)CC(=O)O [atorvastatin, Atorvastatin, reference compound]",size of the lesions,[7],reduction in the size of the lesions
same,effect on LDL concentration,"[5]; FIG. 6, during treatment",induces a reduction
same,reduction of the LDL fraction,"[5]; LDL calculated by Friedewald formula, between T0 and T8",27.16%
O=C(O)C[C@H](O)C[C@H](O)/C=C/c1c(C2CC2)nc2ccccc2c1-c1ccc(F)cc1 [pitavastatin],reduction in plasmatic cholesterol,[8],28.6%
